Assay results as given in patent US11384126B2, “Compositions and methods for inhibiting DHHC-type palmitoyltransferases for cancer treatment” (DANA-FARBER CANCER INSTITUTE, INC., priority 2017, dated 2022).

Key:
DHHC proteins = details: literature: Jennings et al., 2008; cited from earlier work
MDA-MB-231 cells = test: apoptotic cell death, caspase-3 blot after chemotherapeutic agents; format: cell-based, human; details: for cell sensitivity to drug (apoptotic cell death, caspase-3) when zDHHC3 is ablated: MDA-MB-231, 25 hr, D3 shRNA vs control shRNA, Camptothecin 2 μM, Gefitinib 50 μM, 5-Fluorouracil 10 μg/ml
Protocol: Specifically, human breast carcinoma MDA-MB-231 cells were treated with Camptothecin (2 μM), Gefitinib (50 μM), 5-Fluorouracil (10 μg/ml), or DMSO (vehicle control), for 25 hr, lysed, then blotted for caspase-3, to assess apoptotic cell death. C=control shRNA; D3=stable DHHC3 ablation; D3^R=shRNA knockdown cells reconstituted with wild type DHHC3; D3^M=mutant DHHC3 (inactivated by C→S active site mutation).

[1] = tested on: focal adhesion kinase (FAK); test: FAK tyrosine phosphorylation, immunoprecipitation and western blotting; format: cell-based, human; details: control and ZDHHC3-ablated MDA-MB-231 cells, FIG. 2C upper panels
Description: Increased oxidative stress can decrease tyrosine phosphatase activities (Tanner et al., 2011 Antioxid Redox Signal, 15:77-97), which can elevate tyrosine phosphorylation of focal adhesion kinase (FAK) and STAT3 proteins (Carballo et al., 1999 J Biol Chem, 274:17580-6; Ben et al., 2000 IUBMB Life, 50:291-9).

MCP-1 = MCP-1 secretion (senescence-associated), western blotting; format: cell-based, human; details: MDA-MB-231 cells, FIG. 2C bottom panel
Protocol: Cells were cultured in DMEM and/or RPMI medium (Invitrogen, Grand Island, N.Y.) containing 10% FBS (Sigma, Mo.), HEPES and 1% penicillin-streptomycin (Invitrogen, Grand Island, N.Y.). […] Cultured cells were lysed in 1% Triton X-100, and total protein was quantified using BCA protein estimation kit. Western blotting and relative band intensity densitometry were described previously (Sharma et al., 2012 Cell Mol Life Sci, 69:2233-44).

[2] = tested on: ZDHHC3-ablated MDA-MB-231 cells; test: oxidative stress/ROS, CellROX dye, flow cytometry; format: cell-based, human; details: for effect on oxidative stress/ROS elevated by ZDHHC3 ablation: ZDHHC3-ablated MDA-MB-231 cells, CellROX; for direct and indirect effects of oxidative stress in ZDHHC3-ablated cells: summary statement
Protocol: To assess oxidative stress/reactive oxygen species (ROS), control and ZDHHC3-ablated tumor cells were trypsinized and suspended in complete medium. After PBS wash, cells were loaded with 2 μM CellROX dye in complete medium (37° C., 30 min). Cells were then washed twice with IX PBS, incubated in complete media (37° C., 30 min), washed twice again with 1×PBS, and then analyzed by flow cytometry. Similarly, senescence was measured by loading suspended control and ZDHHC3 ablated cells with C12FDG dye (30 min, 37° C.) in complete medium. The C12FDG dye is converted by intracellular β-galactosidase (elevated in senescent cells) to produce fluorescence, which was quantitated by flow cytometry. […] Increased oxidative stress can decrease tyrosine phosphatase activities (Tanner et al., 2011 Antioxid Redox Signal, 15:77-97), which can elevate tyrosine phosphorylation of focal adhesion kinase (FAK) and STAT3 proteins (Carballo et al., 1999 J Biol Chem, 274:17580-6; Ben et al., 2000 IUBMB Life, 50:291-9).

ZDHHC3-ablated cells = test: senescence, C12FDG dye (β-galactosidase), flow cytometry; format: cell-based, human; details: summary statement
Protocol: To assess oxidative stress/reactive oxygen species (ROS), control and ZDHHC3-ablated tumor cells were trypsinized and suspended in complete medium. After PBS wash, cells were loaded with 2 μM CellROX dye in complete medium (37° C., 30 min). Cells were then washed twice with IX PBS, incubated in complete media (37° C., 30 min), washed twice again with 1×PBS, and then analyzed by flow cytometry. Similarly, senescence was measured by loading suspended control and ZDHHC3 ablated cells with C12FDG dye (30 min, 37° C.) in complete medium. The C12FDG dye is converted by intracellular β-galactosidase (elevated in senescent cells) to produce fluorescence, which was quantitated by flow cytometry.

Structure (SMILES) | cell sensitivity to drug (apoptotic cell death, caspase-3) when zDHHC3 is ablated (MDA-MB-231 cells) | effect on ZDHHC3 ablation-induced FAK tyrosine phosphorylation [1] | MCP-1 upregulation in ZDHHC3-ablated cells (MCP-1) | direct and indirect effects of oxidative stress in ZDHHC3-ablated cells [2] | increased senescence measured by β-galactosidase activity and/or SASP marker MCP-1 (ZDHHC3-ablated cells) | also measured
O=C1C(=Cc2cc([N+](=O)[O-])ccc2O)Sc2ccccc21 [2-(2-hydroxy-5-nitro-benzylidene)-benzo[b]thiophen-3-one] |  |  |  |  |  | palmitoyltransferase activity of all DHHC proteins tested (DHHC proteins): inhibited
CCCCCCCCCCCCCCC(Br)C(=O)O (stereo not drawn) [2-bromopalmitate] |  |  |  |  |  | palmitoyltransferase activity of all DHHC proteins tested (DHHC proteins): inhibited
O=c1[nH]cc(F)c(=O)[nH]1 [5-Fu, 5-Fluorouracil] | enhanced |  |  |  |  | 
COc1cc2ncnc(Nc3ccc(F)c(Cl)c3)c2cc1OCCCN1CCOCC1 [Gefitinib] | not enhanced |  |  |  |  | 
CC(=O)N[C@@H](CS)C(=O)O [NAC, N-acetyl cysteine] |  | substantially prevented | markedly diminished | substantially reversed | substantially reversed | effect on oxidative stress/ROS elevated by ZDHHC3 ablation [2]: substantially prevented; effect on oxidative stress/ROS elevated by ZDHHC3 ablation ([2]; listed as N-acetyl cysteine): partial reversal
CC(C)c1c(C(=O)Nc2ccccc2)c(-c2ccccc2)c(-c2ccc(F)cc2)n1CC[C@@H](O)C[C@@H](O)CC(=O)O [atorvastatin] |  | substantially prevented | markedly diminished | substantially reversed | substantially reversed | 
CC[C@@]1(O)C(=O)OCc2c1cc1n(c2=O)Cc2cc3ccccc3nc2-1 [camptothecin] | enhanced |  |  |  |  | cell sensitivity to drug (caspase-3) with inactive DHHC3 (D3M) compared to fully functional DHHC3 (D3R) (MDA-MB-231 cells; zDHHC3-ablated MDA-MB-231 reconstituted, lane 10 vs lane 9): markedly enhanced
O=C(O)CCCCC1CCSS1 (stereo not drawn) [α-LA, α-lipoic acid] |  | substantially prevented | markedly diminished | substantially reversed | substantially reversed | effect on oxidative stress/ROS elevated by ZDHHC3 ablation [2]: substantially prevented
